In assay [1] the test system is Pasteurella multocida 1633. Nature of the assay: MIC, serial dilution in nutrient agar, human bacteria. The class given is cell-based. The settings on record: nutrient agar containing 5% chocolated horse blood.
The subject of assay [2] is Haemophilus influenzae Q1. The description is as above. The class given is cell-based. Conditions: nutrient agar containing 5% chocolated horse blood.
Assay [3] concerns Haemophilus influenzae Wy21. Described as above. Type of assay: cell-based. The settings on record: Haemophilus influenzae Wy21; nutrient agar containing 5% chocolated horse blood; read-out: M.I.C.
The subject of assay [4] is Neisseria flavescens 8263. The assay is described as above. The settings on record: nutrient agar containing 5% chocolated horse blood. Type of assay: cell-based.
The next assay has as its system Bacillus subtilis 6633. Described as above. The class given is cell-based. The settings on record: Bacillus subtilis 6633; nutrient agar containing 5% chocolated horse blood; read-out: M.I.C.
A further assay has as its system Staph. aureus Oxford. Described as above. The class given is cell-based. The settings on record: Staphylococcus aureus; Staph. aureus Oxford; nutrient agar containing 5% chocolated horse blood; read-out: M.I.C.
The test system of a further assay is Staph. aureus Russell. The assay is described as above. The class given is cell-based. Conditions: Staphylococcus aureus; Staph. aureus Russell; nutrient agar containing 5% chocolated horse blood; read-out: M.I.C.
For a further assay, the system named is Strep. pneumoniae CN33. The description is as above. The class given is cell-based. Conditions: Streptococcus pneumoniae.
For a further assay, the system named is Bord. bronchiseptica BO9. Nature of the assay: MIC, veterinary bacteria. Type of assay: cell-based. Conditions: Bordetella bronchiseptica.
For the next assay, the system named is Past. multocida PAI. Nature of the assay: MIC, veterinary bacteria. The class given is cell-based. The settings on record: Pasteurella multocida; Past. multocida PAI; read-out: M.I.C.
The test system of another assay is Past. haemolytica PA5. Nature of the assay: MIC, veterinary bacteria. The class given is cell-based. Conditions: Mannheimia haemolytica.
The test system of the next assay is Staph. aureus B4. Nature of the assay: MIC, veterinary bacteria. The class given is cell-based. Conditions: Staphylococcus aureus; Staph. aureus B4; read-out: M.I.C.
The subject of a further assay is Staph. aureus 152. Nature of the assay: MIC, veterinary bacteria. The class given is cell-based. Conditions: Staphylococcus aureus.
Another assay concerns Strep. uberis SPU 1. Nature of the assay: MIC, veterinary bacteria. The class given is cell-based. The settings on record: Streptococcus uberis, SPU1; Strep. uberis SPU 1; read-out: M.I.C.
Assay [5] concerns Strep. dysgalactiae SPD 1. Nature of the assay: MIC, veterinary bacteria. The class given is cell-based. Conditions: Streptococcus dysgalactiae, SPD1; Strep. dysgalactiae SPD 1; read-out: M.I.C.
A further assay concerns M. dispar NCTC 10125. Nature of the assay: in vitro MIC, anti-mycoplasmal activity. The class given is cell-based. Conditions: Friis' broth, microtiter method. From the text: (§1) Tables 3 and 4 show the in vitro MIC values (μg/ml) of the compounds of Examples 1 to 9 against a number of mycoplasma organisms, determined in Friis' broth using the microtiter method.
In another assay the test system is M. fermentans MWKL4. Briefly: in vitro MIC, anti-mycoplasmal activity. The class given is cell-based. Conditions: Mycoplasmopsis fermentans, Friis' broth, microtiter method.
Source text: as §1

The next assay has as its system M. pulmonis JB. Nature of the assay: in vitro MIC, anti-mycoplasmal activity. Type of assay: cell-based. Conditions: Mycoplasmopsis pulmonis, Friis' broth, microtiter method.
Source text: as §1

Assay [6] deals with M. suipneumoniae J2206/183b. Briefly: in vitro MIC, anti-mycoplasmal activity. Type of assay: cell-based. The settings on record: Mesomycoplasma hyopneumoniae, Friis' broth, microtiter method.
Source text: as §1

In a further assay the test system is M. pneumoniae 427a. Briefly: in vitro MIC, anti-mycoplasmal activity. Type of assay: cell-based. Conditions: Mycoplasmoides pneumoniae, Friis' broth, microtiter method.
The subject of assay [7] is certain Gram-positive and Gram-negative organisms. The settings on record: statement about monic acid A and its esters, earlier British applications; cited from earlier work.
Assay [8] concerns Neisseria catarrhalis 1502. Nature of the assay: MIC, serial dilution in nutrient agar, human bacteria. The class given is cell-based. The settings on record: Neisseria catarrhalis 1502; nutrient agar containing 5% chocolated horse blood; read-out: M.I.C.
The next assay relates to M. suipneumoniae Str. 11. Briefly: in vitro MIC, anti-mycoplasmal activity. The class given is cell-based. Conditions: Mesomycoplasma hyopneumoniae, Friis' broth, microtiter method.
In another assay the test system is M. dispar H225. Nature of the assay: in vitro MIC, anti-mycoplasmal activity. Type of assay: cell-based. The settings on record: M. dispar H225; Friis' broth, microtiter method; read-out: M.I.C.
Source text: as §1

The next assay deals with M. pneumoniae ATCC 15492. Nature of the assay: in vitro MIC, anti-mycoplasmal activity. The class given is cell-based. The settings on record: Mycoplasmoides pneumoniae, ATCC15492, Friis' broth, microtiter method.
Source text: as §1

The mark [9] stands for this setting: Strep. pneumoniae CN33, nutrient agar containing 5% chocolated horse blood, read-out: M.I.C.
[10] abbreviates: Past. haemolytica PA5, read-out: M.I.C.

Converted amounts (≈) assume the structure as drawn. Read-outs that look alike come from different tables or passages of the source.

On to `COC(=O)CNC(=O)C=C(C)CC1OCC(CC2OC2C(C)C(C)O)C(O)C1O` (stereo not shown) [Example 3, Methoxycarbonylmethylamide of monic acid A], for which the MIC in assay [1] came to 12.5 mg/L (≈ 30.1 µM); in [2] it was 1.2 mg/L (≈ 2.89 µM); in assay [3], 1.2 mg/L (≈ 2.89 µM); in [4] it was 25 mg/L (≈ 60.2 µM); in the assay on Bacillus subtilis 6633, 25 mg/L (≈ 60.2 µM); in the assay on Staph. aureus Oxford, 25 mg/L (≈ 60.2 µM). For the same compound, the MIC with Staph. aureus Russell amounted to 125 mg/L (≈ 301 µM); in the assay with Strep. pneumoniae CN33 (setting [9]), 25 mg/L (≈ 60.2 µM); in the assay with Bord. bronchiseptica BO9 (BO9), 5 mg/L (≈ 12 µM); in the assay with Past. multocida PAI, 10 mg/L (≈ 24.1 µM); with Past. haemolytica PA5 (PA5), 5 mg/L (≈ 12 µM); in the assay with Staph. aureus B4, 40 mg/L (≈ 96.3 µM). Moreover, the MIC with Staph. aureus 152 was over 80 mg/L; in the assay on Strep. uberis SPU 1 it was 5 mg/L (≈ 12 µM); in assay [5], 1.25 mg/L (≈ 3.01 µM); in the assay on M. dispar NCTC 10125, under 0.5 mg/L; against M. fermentans MWKL4, under 0.5 mg/L; in the assay on M. pulmonis JB, 62.5 mg/L (≈ 150 µM). The values for the MIC (in assay [6]; in the assay on M. pneumoniae 427a) were 7.8 mg/L (≈ 18.8 µM) and 250 mg/L (≈ 602 µM), respectively.
For `CNC(=O)C=C(C)CC1OCC(CC2OC2C(C)C(C)O)C(O)C1O` (stereo not shown) [Example 2, N-Methylamide of monic acid A], the MIC in assay [1] amounted to 2.5 mg/L (≈ 6.99 µM); in [2], 0.2 mg/L (≈ 0.56 µM); in assay [4], 1 mg/L (≈ 2.8 µM); in the assay with Bacillus subtilis 6633 it was 10 mg/L (≈ 28 µM); with Staph. aureus Oxford, 2.5 mg/L (≈ 6.99 µM); in the assay with Staph. aureus Russell, 25 mg/L (≈ 69.9 µM). The MIC in the assay on Strep. pneumoniae CN33 (setting [9]) is 25 mg/L (≈ 69.9 µM); in the assay with M. dispar NCTC 10125 it was under 0.5 mg/L; against M. fermentans MWKL4, 7.8 mg/L (≈ 21.8 µM); in the assay with M. pulmonis JB, 1 mg/L (≈ 2.8 µM); in assay [6], under 0.5 mg/L; in the assay with M. pneumoniae 427a it was 125 mg/L (≈ 350 µM).
In the case of `CC(=CC(=O)O)CC1OCC(CC2OC2C(C)C(C)O)C(O)C1O` (stereo not shown) [monic acid A], in [7], the antibacterial activity result is on record as “does not appear to have antibacterial activity”.
On to `CC(=CC(N)=O)CC1OCC(CC2OC2C(C)C(C)O)C(O)C1O` (stereo not shown) [Example 1, Primary amide of monic acid A], for which the MIC in assay [1] stood at 10 mg/L (≈ 29.1 µM); in assay [2], 5 mg/L (≈ 14.6 µM); in assay [3], 10 mg/L (≈ 29.1 µM); in assay [4], 2.5 mg/L (≈ 7.28 µM); with Bacillus subtilis 6633 it was 100 mg/L (≈ 291 µM); with Staph. aureus Oxford it was 50 mg/L (≈ 146 µM). Moreover, the MIC with Staph. aureus Russell is 100 mg/L (≈ 291 µM); in the assay with Strep. pneumoniae CN33 (CN33), 100 mg/L (≈ 291 µM); against Bord. bronchiseptica BO9 (BO9) it was 40 mg/L (≈ 116 µM); in the assay with Past. multocida PAI, 40 mg/L (≈ 116 µM); in the assay with Past. haemolytica PA5 (setting [10]) it was 40 mg/L (≈ 116 µM); in the assay with Staph. aureus B4, over 80 mg/L. Further, the MIC was over 80 mg/L in the assay on Staph. aureus 152; 20 mg/L (≈ 58.2 µM) in the assay with Strep. uberis SPU 1; 20 mg/L (≈ 58.2 µM) in assay [5]; 1.9 mg/L (≈ 5.53 µM) in the assay with M. dispar NCTC 10125; 15.6 mg/L (≈ 45.4 µM) in the assay with M. fermentans MWKL4; 15.6 mg/L (≈ 45.4 µM) against M. pulmonis JB. Besides, the MIC was found to be 7.8 mg/L (≈ 22.7 µM) in assay [6] and 250 mg/L (≈ 728 µM) in the assay with M. pneumoniae 427a.
As to `CC(=CC(=O)N(C)C)CC1OCC(CC2OC2C(C)C(C)O)C(O)C1O` (stereo not shown) [Example 4, Dimethylamide of monic acid A], the MIC in assay [1] came to 2.5 mg/L (≈ 6.73 µM); in [2] it was 2.5 mg/L (≈ 6.73 µM); in [3], 2.5 mg/L (≈ 6.73 µM); in assay [8], 2.5 mg/L (≈ 6.73 µM); in the assay on Bacillus subtilis 6633, 25 mg/L (≈ 67.3 µM); in the assay with Staph. aureus Oxford, 5 mg/L (≈ 13.5 µM). Besides, the MIC amounted to 25 mg/L (≈ 67.3 µM) in the assay with Staph. aureus Russell; 50 mg/L (≈ 135 µM) in the assay on Strep. pneumoniae CN33 (setting [9]); 40 mg/L (≈ 108 µM) in the assay on Bord. bronchiseptica BO9 (Bord. bronchiseptica BO9, read-out: M.I.C.); 5 mg/L (≈ 13.5 µM) in the assay with Past. multocida PAI; 40 mg/L (≈ 108 µM) with Past. haemolytica PA5 (setting [10]); 20 mg/L (≈ 53.8 µM) with Staph. aureus B4. For the same compound, the MIC was over 80 mg/L with Staph. aureus 152; 20 mg/L (≈ 53.8 µM) in the assay on Strep. uberis SPU 1; 20 mg/L (≈ 53.8 µM) in assay [5]; 10 mg/L (≈ 26.9 µM) in the assay on M. suipneumoniae Str. 11; 5 mg/L (≈ 13.5 µM) in the assay with M. dispar H225; 2.5 mg/L (≈ 6.73 µM) against M. dispar NCTC 10125. For the same compound, the MIC is 1.25 mg/L (≈ 3.36 µM) in the assay with M. fermentans MWKL4; over 10 mg/L in the assay with M. pneumoniae ATCC 15492; 5 mg/L (≈ 13.5 µM) against M. pulmonis JB; over 10 mg/L in [6]; over 10 mg/L with M. pneumoniae 427a.

The values above are taken from patent US4200635A, “Antibacterially active amides” (Beecham Group Limited, priority 1977, dated 1980).
